Data taken from patent US7265103B2, “Substituted amino isoxazoline derivatives and their use as anti-depressants” (Janssen Pharmaceutica NV., priority 2002, dated 2007).

molecular target: T1, hα2A receptor (Homo sapiens, UniProt P08913); test: Radioligand binding experiment for α2A-adrenergic receptor ([3H]-raulwolscine); details: CHO cell membranes with human α2A receptor, [3H]raulwolscine 1 nM; read-out: pIC50 α2A (converted)
T1 construct: expressed in transfected cells; host or cells: CHO cells
T1 sequence (P08913 1-465): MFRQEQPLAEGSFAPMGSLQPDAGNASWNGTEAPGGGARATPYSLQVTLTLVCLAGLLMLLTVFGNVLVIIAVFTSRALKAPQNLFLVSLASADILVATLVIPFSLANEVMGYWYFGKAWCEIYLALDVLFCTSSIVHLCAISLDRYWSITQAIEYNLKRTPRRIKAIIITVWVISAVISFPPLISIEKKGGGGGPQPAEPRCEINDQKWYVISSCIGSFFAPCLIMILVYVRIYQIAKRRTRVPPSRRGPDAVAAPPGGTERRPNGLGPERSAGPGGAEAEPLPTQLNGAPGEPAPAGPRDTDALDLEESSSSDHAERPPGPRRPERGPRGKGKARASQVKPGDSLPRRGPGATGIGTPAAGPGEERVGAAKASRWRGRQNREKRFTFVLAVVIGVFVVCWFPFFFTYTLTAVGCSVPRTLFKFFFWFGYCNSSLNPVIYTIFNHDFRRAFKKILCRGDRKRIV
Protocol: (§1) The interaction of the compounds of Formula (I) with hα2-receptors and h5-HT-transporters was assessed in in vitro radioligand binding experiments. In general, a low concentration of a radioligand with a high binding affinity for a particular receptor or transporter is incubated with a sample of a tissue preparation enriched in a particular receptor or transporter or with a preparation of cells expressing cloned human receptors in a buffered medium. During the incubation, the radioligand binds to the receptor or transporter. When equilibrium of binding is reached, the receptor bound radioactivity is separated from the non-bound radioactivity, and the receptor- or transporter-bound activity is counted. The interaction of the test compounds with the receptor is assessed in competition binding experiments. Various concentrations of the test compound are added to the incubation mixture containing the receptor- or transporter preparation and the radioligand. The test compound in proportion to its binding affinity and its concentration inhibits binding of the radioligand. The radioligand used for hα2A, hα2B and hα2C receptor binding was [^3H]-raulwolscine and for the h5-HT transporter was [^3H]paroxetine.
(§2) CHO cells, stabile transfected with human adrenergic-α2A-, -α2B or α2C receptor cDNA, were cultured in Dulbecco's Modified Eagle's Medium (DMEM)/Nutrient mixture Ham's F12 (ratio 1:1)(Gibco, Gent-Belgium) supplemented with 10% heat inactivated fetal calf serum (Life Technologies, Merelbeke-Belgium) and antibiotics (100 IU/ml penicillin G, 100 μg/ml streptomycin sulphate, 110 μg/ml pyruvic acid and 100 μg/ml L-glutamine). One day before collection, cells were induced with 5 mM sodiumbutyrate. Upon 80-90% of confluence, cells were scraped in phosphate buffered saline without Ca^2+ and Mg^2+ and collected by centrifugation at 1500×g for 10 min. The cells were homogenised in Tris-HCl 50 mM using an Ultraturrax homogenizer and centrifuged for 10 min at 23,500×g. The pellet was washed once by resuspension and rehomogenization and the final pellet was resuspended in Tris-HCl, divided in 1 ml aliquots and stored at −70° C.
(§3) Membranes were thawed and re-homogenized in incubation buffer (glycylglycine 25 mM, pH 8.0). In a total volume of 500 μl, 2-10 μg protein was incubated with [^3H]raulwolscine (NET-722) (New England Nuclear, USA) (1 nM final concentration) with or without competitor for 60 min at 25° C. followed by rapid filtration over GF/B filter using a Filtermatel 96 harvester (Packard, Meriden, Conn.). Filters were rinsed extensively with ice-cold rinsing buffer (Tris-HCl 50 mM pH 7.4). Filter-bound radioactivity was determined by scintillation counting in a Topcount (Packard, Meriden, Conn.) and results were expressed as counts per minute (cpm). Non-specific binding was determined in the presence of 1 μM oxymetazoline for hα2A- and hα2B receptors and 1 μM spiroxatrine for hα2C receptors.
(§4) Data from assays in the presence of compound were calculated as a percentage of total binding measured in the absence of test compound. Inhibition curves, plotting percent of total binding versus the log value of the concentration of the test compound, were automatically generated, and sigmoidal inhibition curves were fitted using non-linear regression. The pIC50 values of test compounds were derived from individual curves.

IC50 [nM]	Structure (SMILES)
31.6	CC(=Cc1ccc(F)cc1)CN1CCN(CC2ON=C3c4ccc(NC(=O)C5CC5)cc4OCC32)CC1 (stereo not drawn) [Compound 138]
20	COc1cc2c(cc1N1CCC1)OCC1C2=NOC1CN1CCN(CC(C)=Cc2ccc(F)cc2)CC1 (stereo not drawn) [Compound 102]
126	CCCCCNc1ccc2c(c1)OCC1C2=NOC1CN1CCN(CC(C)=Cc2ccc(F)cc2)CC1 (stereo not drawn) [Compound 133]
39.8	CC(=Cc1ccc(F)cc1)CN1CCN(CC2ON=C3c4ccc(N5CC=CCC5)cc4OCC32)CC1 (stereo not drawn) [Compound 135]
158	CC(=Cc1ccc(F)cc1)CN1CCN(CC2ON=C3c4ccc(N(C)CCOC(=O)C5CC5)cc4OCC32)CC1 (stereo not drawn) [Compound 109]
10	CC(=Cc1ccc(F)cc1)CN1CCN(CC2ON=C3c4ccc(N(C)CCNCC(C)O)cc4OCC32)CC1 (stereo not drawn) [Compound 119]

More lines, now with the values behind:

Structure (SMILES)	IC50 [nM]
CC(=Cc1ccc(F)cc1)CN1CCN(CC2ON=C3c4ccc(N5CCc6ccccc6C5)cc4OCC32)CC1 (stereo not drawn) [Compound 73]	50.1
CNc1cc2c(cc1OC)C1=NOC(CN3CCN(CC(C)=Cc4cccc(F)c4)CC3)C1CO2 (stereo not drawn) [Compound 17]	7.94
C/C(=C\c1ccccc1)CN1CCN(CC2ON=C3c4cc5c(cc4OCC32)N(C)CCO5)CC1 (stereo not drawn) [Compound 14]	15.8
COc1cc2c(cc1N1CCOCC1)OCC1C2=NOC1CN1CCN(CC(C)=Cc2ccc(F)cc2)CC1 (stereo not drawn) [Compound 85]	10
CC(=O)N1CCOc2cc3c(cc21)OCC1C3=NOC1CN1CCN(C/C(C)=C/c2ccccc2)CC1 (stereo not drawn) [Compound 12]	2
COc1cc2c(cc1N(C)CCO)OCC1C2=NOC1CN1CCN(CC(C)=Cc2ccccc2)CC1 (stereo not drawn) [Compound 32]	3.98
CCC(C)C(=O)Nc1cc2c(cc1OC)C1=NOC(CN3CCN(CC(C)=Cc4ccc(F)cc4)CC3)C1CO2 (stereo not drawn) [Compound 114]	25.1
COc1cc2c(cc1NC(=O)C1CC1)OCC1C2=NOC1CN1CCN(CC(C)=Cc2ccccc2)CC1 (stereo not drawn) [Compound 52]	3.98
CC(=Cc1ccccc1)CN1CCN(CC2ON=C3c4ccc(NC(=O)c5cccnc5)cc4OCC32)CC1 (stereo not drawn) [Compound 67]	2

molecular target: T2, hα2C receptor (Homo sapiens, UniProt P18825); test: Radioligand binding experiment for α2C-adrenergic receptor ([3H]-raulwolscine); details: CHO cell membranes with human α2C receptor, [3H]raulwolscine 1 nM; read-out: pIC50 α2C (converted)
T2 construct: expressed in transfected cells; host or cells: CHO cells
T2 sequence (P18825 1-462): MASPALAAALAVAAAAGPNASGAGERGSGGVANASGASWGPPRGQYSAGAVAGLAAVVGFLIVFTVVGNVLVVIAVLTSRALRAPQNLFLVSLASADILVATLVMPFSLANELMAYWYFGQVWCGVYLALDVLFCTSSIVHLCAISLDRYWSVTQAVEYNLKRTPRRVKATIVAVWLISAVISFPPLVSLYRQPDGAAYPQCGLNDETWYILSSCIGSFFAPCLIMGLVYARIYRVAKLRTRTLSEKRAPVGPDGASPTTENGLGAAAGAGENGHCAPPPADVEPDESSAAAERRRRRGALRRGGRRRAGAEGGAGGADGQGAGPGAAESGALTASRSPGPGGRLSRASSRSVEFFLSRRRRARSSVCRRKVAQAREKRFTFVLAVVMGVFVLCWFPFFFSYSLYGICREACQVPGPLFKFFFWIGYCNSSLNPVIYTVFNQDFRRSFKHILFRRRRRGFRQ
Protocol: as §1, §2, §3, §4

IC50 [nM]	Structure (SMILES)
31.6	CC(=Cc1ccc(F)cc1)CN1CCN(CC2ON=C3c4ccc(NC(=O)C5CC5)cc4OCC32)CC1 (stereo not drawn) [Compound 138]
15.8	COc1cc2c(cc1N1CCC1)OCC1C2=NOC1CN1CCN(CC(C)=Cc2ccc(F)cc2)CC1 (stereo not drawn) [Compound 102]
126	CCCCCNc1ccc2c(c1)OCC1C2=NOC1CN1CCN(CC(C)=Cc2ccc(F)cc2)CC1 (stereo not drawn) [Compound 133]
25.1	CC(=Cc1ccc(F)cc1)CN1CCN(CC2ON=C3c4ccc(N5CC=CCC5)cc4OCC32)CC1 (stereo not drawn) [Compound 135]
31.6	CC(=Cc1ccc(F)cc1)CN1CCN(CC2ON=C3c4ccc(N(C)CCOC(=O)C5CC5)cc4OCC32)CC1 (stereo not drawn) [Compound 109]
3.16	CC(=Cc1ccc(F)cc1)CN1CCN(CC2ON=C3c4ccc(N(C)CCNCC(C)O)cc4OCC32)CC1 (stereo not drawn) [Compound 119]

Second part, the molecule before the results:

Structure (SMILES)	IC50 [nM]
CC(=Cc1ccc(F)cc1)CN1CCN(CC2ON=C3c4ccc(N5CCc6ccccc6C5)cc4OCC32)CC1 (stereo not drawn) [Compound 73]	5.01
CNc1cc2c(cc1OC)C1=NOC(CN3CCN(CC(C)=Cc4cccc(F)c4)CC3)C1CO2 (stereo not drawn) [Compound 17]	2
C/C(=C\c1ccccc1)CN1CCN(CC2ON=C3c4cc5c(cc4OCC32)N(C)CCO5)CC1 (stereo not drawn) [Compound 14]	5.01
COc1cc2c(cc1N1CCOCC1)OCC1C2=NOC1CN1CCN(CC(C)=Cc2ccc(F)cc2)CC1 (stereo not drawn) [Compound 85]	3.16
CC(=O)N1CCOc2cc3c(cc21)OCC1C3=NOC1CN1CCN(C/C(C)=C/c2ccccc2)CC1 (stereo not drawn) [Compound 12]	1
COc1cc2c(cc1N(C)CCO)OCC1C2=NOC1CN1CCN(CC(C)=Cc2ccccc2)CC1 (stereo not drawn) [Compound 32]	0.794
CCC(C)C(=O)Nc1cc2c(cc1OC)C1=NOC(CN3CCN(CC(C)=Cc4ccc(F)cc4)CC3)C1CO2 (stereo not drawn) [Compound 114]	20
COc1cc2c(cc1NC(=O)C1CC1)OCC1C2=NOC1CN1CCN(CC(C)=Cc2ccccc2)CC1 (stereo not drawn) [Compound 52]	0.631
CC(=Cc1ccccc1)CN1CCN(CC2ON=C3c4ccc(NC(=O)c5cccnc5)cc4OCC32)CC1 (stereo not drawn) [Compound 67]	1.26

molecular target: T3, h5-HT transporter (Homo sapiens, UniProt P31645); test: Radioligand binding experiment for 5-HT transporter ([3H]paroxetine); details: human platelet membranes, [3H]paroxetine 0.5 nM
T3 construct: Human platelet membranes (Oceanix Biosciences Corporation, Hanover, Md., USA) were thawed; tissue Oceanix Biosciences Corporation; host or cells: human platelet membranes
T3 sequence (P31645 whole entry): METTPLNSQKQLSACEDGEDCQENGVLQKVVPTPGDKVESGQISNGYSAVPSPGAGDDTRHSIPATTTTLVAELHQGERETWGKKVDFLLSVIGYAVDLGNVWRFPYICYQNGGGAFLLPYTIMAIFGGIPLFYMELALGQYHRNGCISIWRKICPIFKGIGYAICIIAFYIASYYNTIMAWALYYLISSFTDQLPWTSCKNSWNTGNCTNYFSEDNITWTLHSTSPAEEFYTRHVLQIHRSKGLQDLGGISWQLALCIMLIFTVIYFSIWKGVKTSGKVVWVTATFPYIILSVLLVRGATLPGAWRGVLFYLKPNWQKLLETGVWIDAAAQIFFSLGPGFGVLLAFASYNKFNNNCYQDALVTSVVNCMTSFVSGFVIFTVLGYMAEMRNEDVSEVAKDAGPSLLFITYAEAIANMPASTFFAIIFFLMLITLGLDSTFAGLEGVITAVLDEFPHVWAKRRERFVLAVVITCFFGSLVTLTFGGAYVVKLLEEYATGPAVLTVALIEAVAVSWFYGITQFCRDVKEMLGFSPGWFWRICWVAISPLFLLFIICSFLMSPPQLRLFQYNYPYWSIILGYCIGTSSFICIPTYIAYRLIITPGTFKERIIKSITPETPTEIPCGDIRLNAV
Protocol: as §1
Human platelet membranes (Oceanix Biosciences Corporation, Hanover, Md., USA) were thawed, diluted in buffer (Tris-HCl 50 mM, 120 mM NaCl and 5 mM KCl) and quickly (max 3 s) homogenised with an Ultraturrax homogenizer. In a total volume of 250 μL, 50-100 μg protein was incubated with [^3H]paroxetine (NET-869) (New England Nuclear, USA) (0.5 nM final concentration) with or without competitor for 60 min at 25° C. Incubation was stopped by rapid filtration of the incubation mixture over GF/B filters, pre-wetted with 0.1% polyethyleneamine, using a Filtermatel 96 harvester (Packard, Meriden, Conn.). Filters were rinsed extensively with ice-cold buffer and radioactivity on the filters was counted in a Topcount liquid scintillation counter (Packard, Meriden, Conn.). Data were expressed as cpm. Imipramine (at 1 μM final concentration) was used to determine the non-specific binding.
as §4

IC50 [nM]	Structure (SMILES)
50.1	CC(=Cc1ccc(F)cc1)CN1CCN(CC2ON=C3c4ccc(NC(=O)C5CC5)cc4OCC32)CC1 (stereo not drawn) [Compound 138]
50.1	COc1cc2c(cc1N1CCC1)OCC1C2=NOC1CN1CCN(CC(C)=Cc2ccc(F)cc2)CC1 (stereo not drawn) [Compound 102]
126	CCCCCNc1ccc2c(c1)OCC1C2=NOC1CN1CCN(CC(C)=Cc2ccc(F)cc2)CC1 (stereo not drawn) [Compound 133]
79.4	CC(=Cc1ccc(F)cc1)CN1CCN(CC2ON=C3c4ccc(N5CC=CCC5)cc4OCC32)CC1 (stereo not drawn) [Compound 135]
39.8	CC(=Cc1ccc(F)cc1)CN1CCN(CC2ON=C3c4ccc(N(C)CCOC(=O)C5CC5)cc4OCC32)CC1 (stereo not drawn) [Compound 109]
3.16	CC(=Cc1ccc(F)cc1)CN1CCN(CC2ON=C3c4ccc(N(C)CCNCC(C)O)cc4OCC32)CC1 (stereo not drawn) [Compound 119]

The remaining lines, values behind:

Structure (SMILES)	IC50 [nM]
CC(=Cc1ccc(F)cc1)CN1CCN(CC2ON=C3c4ccc(N5CCc6ccccc6C5)cc4OCC32)CC1 (stereo not drawn) [Compound 73]	63.1
CNc1cc2c(cc1OC)C1=NOC(CN3CCN(CC(C)=Cc4cccc(F)c4)CC3)C1CO2 (stereo not drawn) [Compound 17]	12.6
C/C(=C\c1ccccc1)CN1CCN(CC2ON=C3c4cc5c(cc4OCC32)N(C)CCO5)CC1 (stereo not drawn) [Compound 14]	31.6
COc1cc2c(cc1N1CCOCC1)OCC1C2=NOC1CN1CCN(CC(C)=Cc2ccc(F)cc2)CC1 (stereo not drawn) [Compound 85]	63.1
CC(=O)N1CCOc2cc3c(cc21)OCC1C3=NOC1CN1CCN(C/C(C)=C/c2ccccc2)CC1 (stereo not drawn) [Compound 12]	31.6
COc1cc2c(cc1N(C)CCO)OCC1C2=NOC1CN1CCN(CC(C)=Cc2ccccc2)CC1 (stereo not drawn) [Compound 32]	20
CCC(C)C(=O)Nc1cc2c(cc1OC)C1=NOC(CN3CCN(CC(C)=Cc4ccc(F)cc4)CC3)C1CO2 (stereo not drawn) [Compound 114]	31.6
COc1cc2c(cc1NC(=O)C1CC1)OCC1C2=NOC1CN1CCN(CC(C)=Cc2ccccc2)CC1 (stereo not drawn) [Compound 52]	20
CC(=Cc1ccccc1)CN1CCN(CC2ON=C3c4ccc(NC(=O)c5cccnc5)cc4OCC32)CC1 (stereo not drawn) [Compound 67]	12.6
